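How tested: cells in 96-well plates exposed to compound for 48 hours at five concentrations. GI50 = concentration required for 50% inhibition of growth. TGI marks complete inhibition of growth.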
Legend:
Experiment in all cases: inhibition of tumour cell growth, NCI panel, 48 h
CCRF-CEM leukemia = tested on: CCRF-CEM leukemia
HCC-2998 colon = tested on: HCC-2998 colon
HS 578T breast = tested on: HS 578T breast
NCI-H226 lung = tested on: NCI-H226 lung
NCI/ADR-RES ovarian = tested on: NCI/ADR-RES ovarian
RPMI-8226 leukemia = tested on: RPMI-8226 leukemia
SK-MEL-2 melanoma = tested on: SK-MEL-2 melanoma
SNB-19 CNS = tested on: SNB-19 CNS
SW-620 colon = tested on: SW-620 colon
TK-10 renal = tested on: TK-10 renal

SMILES	GI50 (CCRF-CEM leukemia) [µM]	TGI (CCRF-CEM leukemia) [µM]	GI50 (HCC-2998 colon) [µM]	TGI (HCC-2998 colon) [µM]	GI50 (HS 578T breast) [µM]	TGI (HS 578T breast) [µM]	GI50 (NCI-H226 lung) [µM]	TGI (NCI-H226 lung) [µM]	GI50 (NCI/ADR-RES ovarian) [µM]	TGI (NCI/ADR-RES ovarian) [µM]	GI50 (RPMI-8226 leukemia) [µM]	TGI (RPMI-8226 leukemia) [µM]	GI50 (SK-MEL-2 melanoma) [µM]	TGI (SK-MEL-2 melanoma) [µM]	GI50 (SNB-19 CNS) [µM]	TGI (SNB-19 CNS) [µM]	GI50 (SW-620 colon) [µM]	TGI (SW-620 colon) [µM]	GI50 (TK-10 renal) [µM]	TGI (TK-10 renal) [µM]
Cc1nnc(NC(=O)c2nc(S(=O)(=O)Cc3ccc(F)cc3)ncc2Cl)s1	1.52	3.65	13.4	29.4	12.7	50.8	6.27	25.7	14.2	50.1	2.21	12.8	3.19	9.72	15.6	35.1	1.51	3.25	–	–
CCOC(=O)C1=C(C)N(c2ccc(F)cc2F)[C@]2(C#N)C(O)=C(Cl)C(Cl)=C(O)[C@]12C#N	28.8	> 100	–	–	> 100	> 100	> 100	> 100	5.61	> 100	27.1	> 100	> 100	> 100	> 100	> 100	> 100	> 100	> 100	> 100
CCCCCCCCCCCCC(O)c1ccc(C#CCCCCCCCCCO)o1 (configuration not stated)	23.2	51.4	27.5	48.2	23.8	47.3	21.2	37.9	18.3	34.3	27.2	71.3	26.4	81	31.7	83.1	22.7	41.4	15.7	30.5
COc1cccc(C(=O)NC(c2ccc(C)cc2)c2cc(Cl)c3cccnc3c2O)c1 (configuration not stated)	0.366	11.7	0.786	15.1	0.362	30.5	0.568	2.57	0.33	> 88.6	0.621	19.1	0.767	9.16	0.371	29	0.425	23.4	0.393	4.8
O=[N+]([O-])c1ccc(Cl)cc1N/N=C/c1ccnc2ccccc12	–	> 100	–	> 100	–	> 100	–	> 100	–	> 100	–	> 100	–	–	–	> 100	–	> 100	–	> 100
CCOC(=S)SCC(=O)O	–	26.6	–	–	–	> 100	–	> 100	–	> 100	–	> 100	–	> 100	–	> 100	–	> 100	–	> 100
COc1ccc(-c2cn[nH]c2-c2cc(OC)c(OC)c(OC)c2)cc1	0.0353	> 42.6	0.0432	15	0.0408	22.5	0.111	20.6	0.0305	40.2	0.0429	5.16	0.0317	21.5	0.0631	> 74.9	0.0316	26.7	–	–
